Patent US20130273649A1, “Culture medium for pluripotent stem cells” (UNIVERSITY OF SOUTHERN CALIFORNIA, priority 2012, published 2013)

Legend:
Type in all cases: cell-based
mouse EpiSCs = test: Mouse EpiSC self-renewal culture; settings: for EpiSC self-renewal / maintenance of undifferentiated state: CD1 mouse EpiSCs, GMEM/10% FBS, no FGF2/activin unless named, CHIR 3 μM, PD0325901 1 μM, XAV939 2 μM, IWR-1 2.5 μM, IWP-2 2.5 μM, Pyrvinium 100 nM
Text: We therefore reasoned that if CHIR induces EpiSC differentiation through stabilization of β-catenin, de-stabilization of β-catenin might promote EpiSC self-renewal. We tested this hypothesis by administering the tankyrase inhibitor XAV939 to mouse EpiSC cultures. XAV939-mediated inhibition of tankyrase stabilizes Axin, leading to the formation of the β-catenin destruction complex, composed of GSK3, Axin and adenomatous polyposis coli (APC) (Huang et al., 2009). […] EpiSCs cultured in CHIR/XAV could be routinely passaged by single-cell dissociation and replating onto gelatin-coated dishes, and could be cryo-preserved and recovered at high efficiency by standard techniques.
final concentrations: CHIR99021 (3 μM), PD0325901 (1 μM), XAV939 (Sigma, 2 μM), IWR-1 (Sigma, 2.5 μM), IWP-2 (Stemgent, 2.5 μM), Pyrvinium (Sigma, 100 nM), recombinant human FGF2 (PeproTech, 10 ng/ml), and recombinant human activin A (PeproTech, 10 ng/ml). CHIR99021 and PD0325901 were synthesized in the Division of Signal Transduction Therapy, University of Dundee, UK.
The basal medium for mouse EpiSC culture is the conventional mouse ESC medium, which consists of GMEM (Sigma) supplemented with 10% fetal bovine serum (FBS) (Hyclone), 2 mM L-glutamine (Invitrogen), 1 mM sodium pyruvate (Invitrogen), 1% nonessential amino acids (Invitrogen), and 0.1 mM (3-mercaptoethanol. Mouse EpiSCs were derived and maintained in the basal medium supplemented with FGF2/activin, CHIR/XAV, or CHIR/IWR-1. The basal medium for rat EpiSC culture is N2B27 (Tong et al., 2011), which was prepared by mixing 500 ml of DMEM/F12 (Invitrogen) with 500 ml of Neurobasal™ medium (Invitrogen), and adding 5 ml of N2 (Invitrogen), 10 ml of B27 (Invitrogen), 5 ml of Glutamax™ (Invitrogen), and 1 ml of 0.1 M β-mercaptoethanol (Sigma). The basal medium for human ESC culture consists of Knockout™ DMEM/F12 supplemented with 20% KSR (Invitrogen), 1% nonessential amino acids, 2 mM L-glutamine, and 0.1 mM (3-mercaptoethanol. Human ESCs were cultured in the basal medium supplemented with FGF2, CHIR/XAV, or CHIR/IWR-1.
Post-implantation epiblasts were isolated from mouse or rat embryos and dissociated into small clumps as previously described (Chenoweth and Tesar, 2010). Epiblast fragments were placed into 4-well plates pre-coated with 0.1% gelatin (for mouse epiblasts) or pre-seeded with γ-irradiated mouse embryonic fibroblasts (MEFs) (for rat epiblasts) and cultured in either the FGF2/activin or the CHIR/XAV conditions. Emerging EpiSCs were trypsinized and expanded every 2-3 days at a subculture ratio of 1:4. Animal experiments were performed according to the investigator's protocols approved by the University of Southern California Institutional Animal Care and Use Committee.

[1] = system: β-catenin/TCF-responsive TOPFlash reporter; test: TOPFlash reporter assay in H9 human ESCs; settings: 24 h, added to CHIR
Method: (A) TOPFlash™ assay in H9 human ESCs subjected to the indicated treatments for 24 h. Data represent mean±s.d. of three biological replicates. (B) Representative phase contrast and alkaline phosphatase (AP) staining images of H9 human ESCs cultured in the indicated conditions for 3 passages. (C) Phase contrast images of H9 human ESCs cultured in CHIR/XAV or CHIR/IWR-1 for 11 passages. (D) Colony forming efficiency assay of H9 human ESCs cultured in FGF2 or CHIR/IWR-1 conditions. Data represent mean±s.d. of three biological replicates. Right panel: a representative image showing AP staining of colonies formed from H9 human ESCs cultured in either FGF2 or CHIR/IWR-1 condition. (E) Human ESCs cultured in CHIR/IWR-1 for 11 passages were immunostained with the indicated antibodies. (F) Embryoid bodies (EBs) were generated from H9 human ESCs cultured in CHIR/IWR-1 for 11 passages. The outgrowths of EBs were immunostained with the indicated antibodies. (G) H&E staining of teratomas generated from H9 ESCs cultured in CHIR/IWR-1 for 20 passages. (H) Western blot analysis of Axin1 and Axin2 expression in HES3 human ESCs treated with the indicated cytokines/inhibitors for 24 h. (I) Immunofluorescence images of H9 human ESCs (passage 5 in CHIR) overexpressing Flag-tagged Axin2. (J) Representative phase contrast and immunofluorescence images of HES2 human ESCs overexpressing ΔNβ-catenin-ERT2 at passage 5 in basal medium only. These cells were cultured in basal medium only for more than 10 passages and remained morphologically undifferentiated. (K) Phase contrast images of HES2 human ESCs overexpressing ΔNβ-catenin (left panel, passage 2 in basal medium/FGF2) or ΔNβ-catenin/A295W/I296W mutant (right panel, passage 5 in basal medium only). Scale bars, 50 μm (B, C, E-G, and I-K). (L) Model of mouse EpiSC and human ESC self-renewal mediated by β-catenin. In the absence of Wnt or GSK3 inhibitor, a β-catenin destruction complex, containing Axin1, GSK3, and APC is formed, leading to the degradation of β-catenin and differentiation (left). In the presence of Wnt or GSK3 inhibitor, β-catenin is stabilized and can initiate cellular responses related to both self-renewal and differentiation. Stabilized β-catenin induces differentiation when it translocates into the nucleus and binds TCFs to activate downstream targets (middle). Addition of XAV or IWR-1 stabilizes Axin2. […]
(§1) For quantifying relative Oct3/4 enhancer activities, pGL3-Oct4 DE and pGL3-Oct4 PE plasmids (gifts from Hans Schöler's lab) were co-transfected with the Renilla vector, using the Amaxa™ Transfection Kit (Lonza). […] For quantifying relative β-catenin/Tcf transcriptional activity, pGL2-SuperTOP™ plasmid (gift from Randall Moon) was co-transfected with the Renilla vector and assayed accordingly.

[2] = system: β-catenin/TCF-responsive TOPFlash reporter; test: TOPFlash reporter assay in mouse EpiSCs; settings: CD1 mouse EpiSCs, 12 hours, added to CHIR
Method: (§2) (A) TOPFlash™ assay in CD1 mouse EpiSCs treated with the indicated inhibitors for 12 hours. Data represent mean±s.d. of three biological replicates. (B) Representative phase contrast images of CD1 mouse EpiSCs cultured in the indicated conditions for 7 days. (C) Western blot analysis of CD1 mouse EpiSCs treated with the indicated inhibitors for 12 h. (D) qRT-PCR analysis of Axin1 and Axin2 mRNA levels in CD1 mouse EpiSCs stably transfected with Axin1 shRNA or Axin2 shRNA. Data represent mean±s.d. of three biological replicates. (E) Colony assay on CD1 mouse EpiSCs stably transfected with scramble, Axin1, or Axin2 shRNAs. Cells were plated onto a 6-well plate at a density of 5,000 cells/well and cultured in CHIR/IWR-1. Colonies were counted 7 days after plating. Data represent the total combined numbers of colonies from two independent experiments in which each shRNA-transfected group was cultured in one well of a 6-well plate. (F) Representative phase contrast images of CD 1 mouse EpiSCs stably transfected with the indicated shRNAs and cultured in CHIR/IWR-1 for 7 days. (G) Western blot analysis of CD1 mouse EpiSCs overexpressing Flag-tagged Axin1 or Axin2. (H) Representative phase contrast images of CD1 mouse EpiSCs overexpressing Axin1 or Axin2 and cultured in CHIR for 7 days. Axin2-overexpressing EpiSCs could be continually passaged in CHIR alone. Scale bars, 50 μm (B, F and H)
Next, we investigated the mechanism by which CHIR/XAV promotes EpiSC self-renewal. By inhibiting GSK3 phosphorylation of β-catenin, CHIR stabilizes β-catenin, which then trans-locates to the nucleus and forms complexes with DNA-binding proteins, including TCFs, to activate transcription (Logan and Nusse, 2004). […]
as §1

Axin1 [3] = test: Western blot of Axin1 in mouse EpiSCs; settings: CD1 mouse EpiSCs treated 12 h
Method: as §2
Next, we investigated the mechanism by which CHIR/XAV promotes EpiSC self-renewal. By inhibiting GSK3 phosphorylation of β-catenin, CHIR stabilizes β-catenin, which then trans-locates to the nucleus and forms complexes with DNA-binding proteins, including TCFs, to activate transcription (Logan and Nusse, 2004). […] Axin has two isoforms, Axin1 and Axin2. […] The expression level of Axin2, but not Axin1, was also elevated by CHIR treatment (FIG. 4C), an outcome consistent with previous findings that Axin2 is a direct downstream target of Wnt/β-catenin signaling (Jho et al., 2002). […]

Axin2 [4] = test: Western blot of Axin2 in mouse EpiSCs; settings: CD1 mouse EpiSCs treated 12 h
Axin1 [5] = test: Western blot of Axin1 in human ESCs; settings: human ESCs treated 24 h
Method: (A) TOPFlash™ assay in H9 human ESCs subjected to the indicated treatments for 24 h. Data represent mean±s.d. of three biological replicates. (B) Representative phase contrast and alkaline phosphatase (AP) staining images of H9 human ESCs cultured in the indicated conditions for 3 passages. (C) Phase contrast images of H9 human ESCs cultured in CHIR/XAV or CHIR/IWR-1 for 11 passages. (D) Colony forming efficiency assay of H9 human ESCs cultured in FGF2 or CHIR/IWR-1 conditions. Data represent mean±s.d. of three biological replicates. Right panel: a representative image showing AP staining of colonies formed from H9 human ESCs cultured in either FGF2 or CHIR/IWR-1 condition. (E) Human ESCs cultured in CHIR/IWR-1 for 11 passages were immunostained with the indicated antibodies. (F) Embryoid bodies (EBs) were generated from H9 human ESCs cultured in CHIR/IWR-1 for 11 passages. The outgrowths of EBs were immunostained with the indicated antibodies. (G) H&E staining of teratomas generated from H9 ESCs cultured in CHIR/IWR-1 for 20 passages. (H) Western blot analysis of Axin1 and Axin2 expression in HES3 human ESCs treated with the indicated cytokines/inhibitors for 24 h. (I) Immunofluorescence images of H9 human ESCs (passage 5 in CHIR) overexpressing Flag-tagged Axin2. […]

Axin2 [6] = test: Western blot of Axin2 in human ESCs; settings: human ESCs treated 24 h
[7] = system: β-catenin-TCF transcriptional activity; test: β-catenin-TCF transcriptional activity induced by CHIR; settings: data not shown
Text: The role of β-catenin in human ESC self-renewal has been controversial. […] Our finding that activation of β-catenin can promote human ESC self-renewal or differentiation, and that the respective outcome is dictated by whether β-catenin translocates into the nucleus, provides a rational explanation for earlier, seemingly paradoxical results. […] Some of the contradicted results on the role of β-catenin in human ESC self-renewal, therefore, might be attributable to variations in the subcellular localization of β-catenin under different culture conditions.

Compound: Cc1ccc2nc(NC(=O)CSc3nc4c(c(=O)n3-c3ccccc3)SCC4)sc2c1 [IWP-2]
- EpiSC self-renewal / maintenance of undifferentiated state (mouse EpiSCs): unable to support EpiSC self-renewal
- effect on TOPFlash activity induced by CHIR [1]: only partially suppressed

Compound: 4-hydroxytamoxifen [4-OHT]
- differentiation of ΔNβ-catenin-ERT2-overexpressing EpiSCs (mouse EpiSCs; 1 μM 4-OHT, even in the presence of IWR-1): resulted in rapid differentiation

Compound: Cc1cc(/C=C/c2ccc3cc(N(C)C)ccc3[n+]2C)c(C)n1-c1ccccc1 [Pyrvinium]
- EpiSC self-renewal / maintenance of undifferentiated state (mouse EpiSCs): unable to support EpiSC self-renewal

Compound: O=C(Nc1cccc2cccnc12)c1ccc(N2C(=O)[C@@H]3[C@H](C2=O)[C@@H]2C=C[C@H]3C2)cc1 [IWR-1, 4-(1,3,3a,4,7,7a-Hexahydro-1,3-dioxo-4,7-methano-2H-isoindol-2-yl)-N-8-quinolinyl-Benzamide]
- effect on TOPFlash activity induced by CHIR [2]: blocked TOPFlash™ reporter activity induced by CHIR
- amount of Axin1 protein (Axin1 [3]): significantly increased
- amount of Axin2 protein (Axin2 [4]): significantly increased
- effect on TOPFlash activity induced by CHIR [1]: abolished this TOPFlash™ activity
- amount of Axin1 protein (Axin1 [5]): significantly increased
- amount of Axin2 protein (Axin2 [6]): significantly increased

Compound: bovine serum albumin: bovine serum albumin
- effect on β-catenin-TCF transcriptional activity induced by CHIR [7]: partially block
